Test results as given in US20240269151A1, “NASAL SLEEP FORMULATION” (CS MEDICA A/S, priority 2021, published 2024).

Experiment: Comparison of nasal sleep compositions formulated with type A or type B crystalline CBD
Type: in vivo
Settings: nasal sleep compositions differing only in the crystalline CBD used
Protocol: Two nasal sleep compositions are prepared as disclosed herein, such as according to Example 1, 5 and/or 7, the only difference being that the crystalline CBD used in the formulation is either of type A (needle-like crystals; FIG. 1) or type B (bunch/cluster-like; FIG. 2).
Type A crystalline CBD is sourced from Enecta, while type B CBD is sourced from Pharma Hemp. Further details can e.g. be found in the first aspect of the invention, such as Table 1.

Compound: C=C(C)[C@@H]1CCC(C)=C[C@H]1c1c(O)cc(CCCCC)cc1O [type A CBD, Cannabidiol]
- Activity/potency of type A CBD versus type B CBD: significantly more active than type B CBD
- Activity/potency of type A CBD versus type B CBD (listed as CBD with a needle-like crystal structure): significantly more potent than CBD with a different crystal structure
